Source: patent US20230346969A1, “INTERMEDIATE FOR PREPARING ANTIBODY-DRUG CONJUGATE (ADC), PREPARATION METHOD THEREFOR, AND USE THEREOF” (priority 2020, published 2023)

Assays:
NCIH1688 cells = assay: Transplanted tumor from NCIH1688 cells alone (not expressing Trop-2); assay type: in vivo, BALB/c-nu/nu mice; conditions: hRS7-VK-PTX 10 mg/kg, hRS7-VK-MMAE 3 mg/kg
Excerpt: (§1) Five-week-old female athymic BALB/c nu/nu mice were purchased from Charles River Company (Shanghai, China), and mice were randomly divided into 5-6 mice/group. Animal handling and procedures were approved and performed in accordance with the requirements of the Institutional Animal Care and Use Committee (IACUC) of Shanghai Institute of Materia Medica, Chinese Academy of Sciences. All models were inoculated subcutaneously on the side of mice. BXPC-3, HCC1806 and NCIH1688 cells were established by injecting and homogenizing 5 × 10^6 cells in Matrigel matrix. COLO205 cells were established by injecting and suspending 1 × 10^7 cells in Matrigel matrix. After the tumor volume reached about 200 mm^3, the tumor-bearing mice were randomly divided into treatment groups and a control group according to the tumor volume. Each drug was administered intraperitoneally. […] The percentage of inhibition was calculated by the following formula: (1-average tumor volume of the treatment group/average tumor volume of the control group)×100%. Toxicity of the different treatment groups was assessed by monitoring weight loss.
(§2) A mixture of Trop-2-positive tumor cells BXPC-3 and Trop-2-negative tumor cells NCIH1688 or NCIH1688 cells alone were inoculated into BALB/c-nu/nu mice (FIG. 1e, right panel), and the “bystander effect” of hRS7-VK-PTX was detected in a mouse transplanted tumor model.

SKBR3 = assay: Cell viability assay (CCK-8); assay type: cell-based; conditions: ADCs; CCK-8, 96 hours; 'SKERS' [sic], Mammary; read-out: IC50 (95% Cl)
Description: (§3) Cell viability was determined using Cell Counting Kit 8 (CCK-8). Cells were seeded into 96-well plates at 3000-10000 cells/well. After incubation overnight, drugs were added at different concentrations. Plates were incubated in a 5% CO2, 37° C. humidified chamber for 96 hours. CCK8 reagent was added thereto and the plates were placed back to the incubator until the absorbance at 450 nm of untreated control cells was greater than 1.0. Growth inhibition was measured as the percent growth relative to untreated cells. Dose response curve was generated from the mean values of two or three tests, and IC50 values were calculated using Prism GraphPad software.
(§4) The anti-tumor efficacy of different payloads on different tumor cell lines was detected by CCK-8, and the results are shown in FIG. 5.

Capan-1 = assay: Cell viability assay (CCK-8); assay type: cell-based; conditions: ADCs; CCK-8, 96 hours; Cxoo-1 [sic], Pancreas; read-out: IC50 (95% Cl)
Description: as §3, §4

NCI-H1688 = assay: Cell viability assay (CCK-8); assay type: cell-based; conditions: ADCs; CCK-8, 96 hours; cell 'HCl-11685' [sic], Lung; read-out: IC50 (95% Cl)
Description: as §3, §4

MDA-MB-231 = assay: Cell viability assay (CCK-8); assay type: cell-based; conditions: ADCs; CCK-8, 96 hours; cell 'SRM-K9-231' [sic], Mamary; read-out: IC50 (95% Cl)
Description: as §3, §4

HCC1806 = assay: Cell viability assay (CCK-8); assay type: cell-based; conditions: ADCs; CCK-8, 96 hours; 'HOC1906' [sic], Mamary; read-out: IC50 (95% Cl)
Description: as §3, §4

COLO205 = assay: Cell viability assay (CCK-8); assay type: cell-based; conditions: ADCs; CCK-8, 96 hours; cell printed 'COXC28', Colon; read-out: IC50 (95% Cl)
Description: as §3, §4

NCIH2452 = assay: Cell viability assay (CCK-8); assay type: cell-based; conditions: ADCs; CCK-8, 96 hours; cell 'HOC2401' [sic], Lung; read-out: IC50 (95% Cl)
Description: as §3, §4

MDA-MB-468 = assay: Cell viability assay (CCK-8); assay type: cell-based; conditions: ADCs; CCK-8, 96 hours; SRM-M9-409, Mammary; read-out: IC50 (95% Cl)
Description: as §3, §4

BXPC-3 = assay: Cell viability assay (CCK-8); assay type: cell-based; conditions: ADCs; CCK-8, 96 hours; cell RMCA [sic], Pancreas; read-out: IC50 (95% Cl)
Description: as §3, §4

SCLC-21H = assay: Cell viability assay (CCK-8); assay type: cell-based; conditions: ADCs; CCK-8, 96 hours; SRM-C-21H; read-out: IC50 (95% Cl)
Description: as §3, §4

CFPAC-1 = assay: Cell viability assay (CCK-8); assay type: cell-based; conditions: ADCs; CCK-8, 96 hours; cell CPAC-1 [sic], Pancreas; read-out: IC50 (95% Cl)
Description: as §3, §4

SK-MES-1 = assay: Cell viability assay (CCK-8); assay type: cell-based; conditions: ADCs; CCK-8, 96 hours; cell 'SK-WSS-7' [sic], Lung; read-out: IC50 (95% Cl)
Description: as §3, §4

HT29 = assay: Cell viability assay (CCK-8); assay type: cell-based; conditions: ADCs; CCK-8, 96 hours; cell '3128' [sic], Colon; read-out: IC50 (95% Cl)
Description: as §3, §4

BXPC-3 cells = assay: BXPC-3 mouse transplanted tumor model; assay type: in vivo, BALB/c nu/nu mice
Excerpt: as §1, with “matrix.” for “matrix. After the tumor volume reached about 200 mm^3, the tumor-bearing mice were randomly divided into treatment groups and a control group according to the tumor volume. Each drug was administered intraperitoneally.”
Mice inoculated with BXPC-3 cells (n = 5 per group) were treated with ADC or naked antibody on days 5, 13, and 21, and tumors were measured two or three times a week. On day 25, statistical significance between treatment and control groups was assessed using a two-tailed t-test. ***P<0.001, compared with hRS7 treatment group; *P<0.05, comparing hRS7-VK-PTX treatment group with PTX treatment group; compared with hRS7 treatment group, P<0.001, data=mean ± SD, the results are shown in FIG. 7a.

[1] = test system: mixture of Trop-2-positive tumor cells BXPC-3 and Trop-2-negative tumor cells NCIH1688; assay: Bystander effect: transplanted tumor from mixture of BXPC-3 and NCIH1688 cells; assay type: in vivo, BALB/c-nu/nu mice; conditions: 10 mg/kg, transplanted tumors heterogeneously expressing Trop-2
Excerpt: as §1, §2

hRS7-VK-PTX
killing effect on transplanted tumors not expressing Trop-2 (NCIH1688 cells): had no such effect
IC50 (SKBR3): 1.74 nM
IC50 (Capan-1): 2.98 nM
IC50 (NCI-H1688): 32.4 nM
IC50 (MDA-MB-231): 1.59 nM
IC50 (HCC1806): 0.266 nM
IC50 (COLO205): 4.52 nM
IC50 (NCIH2452): 1.4 nM
IC50 (MDA-MB-468): 2.68 nM
IC50 (BXPC-3): 0.633 nM
IC50 (SCLC-21H): 2.96 nM
IC50 (CFPAC-1): 16.8 nM
IC50 (SK-MES-1): 10.1 nM
IC50 (HT29): 3.47 nM
inhibition of transplanted tumor (BXPC-3 cells; BXPC-3 xenograft, intraperitoneal, days 5, 13, 21): more effective than hRS7-VK-SN38
inhibition of transplanted tumor compared with PTX (BXPC-3 cells; BxPC-3 model, 3 mg/kg of hRS7-VK-PTX, P = 0.0248): more effective than 10 mg/kg of PTX
tumor growth inhibition index (TGI) [1]: 99.5%
